Measurements reported in ChEMBL document CHEMBL1159362, “New cytotoxic indole alkaloids from Tabernaemontana calcarea from the Madagascar rainforest” (J Nat Prod, 2003).
≈ marks a conversion by molar mass, not a printed value.

System: A2780
Test: Cytotoxicity against human A2780 cells
Type: functional, cell-based

Structure (SMILES) | IC50 [µg/mL]
CC[C@H]1C[C@@H]2CN3CCc4c([nH]c5cc(OC)ccc45)[C@](C(=O)OC)(C2)[C@H]13 [ISOVOACANGINE] | 9.4 (≈ 25.5 µM)
C[C@@H](O)[C@@H]1C[C@H]2C[C@H]3c4[nH]c5ccccc5c4CCN(C2)[C@@H]13 | 8.9 (≈ 30 µM)
COC(=O)[C@@]12C[C@@H]3C[C@H]([C@H](C)O)[C@@H]1N(CCc1c2[nH]c2cc(OC)ccc12)C3 [ISOVOACRISTINE] | 9.6 (≈ 25 µM)
COC(=O)[C@@]12C[C@@H]3C[C@H]([C@H](C)O)[C@@H]1N(CCc1c2[nH]c2ccc(OC)cc12)C3 [VOACRISTINE] | 11 (≈ 28.6 µM)
COC(=O)[C@@]12C[C@@H]3C[C@H]([C@@H](C)O)[C@@H]1N(CCc1c2[nH]c2ccc(OC)cc12)C3 [19(R)-HEYNEANINE] | 4 (≈ 10.4 µM)
COC(=O)[C@@]12C[C@@H]3C[C@H]([C@@H](C)O)[C@@H]1N(CCc1c2[nH]c2ccc(OC)cc12)C3=O | 6.8 (≈ 17.1 µM)
CC[C@H]1C[C@@H]2CN3CCc4c([nH]c5cc(O)ccc45)[C@](C(=O)OC)(C2)[C@H]13 | 4.8 (≈ 13.5 µM)
COC(=O)[C@@]12C[C@@H]3C[C@H]([C@@H](C)O)[C@@H]1N(CC[C@]1(O)C2=Nc2ccc(OC)cc21)C3 | 10.8 (≈ 27 µM)
CC[C@H]1C[C@H]2CC3c4[nH]c5cc(OC)ccc5c4CCN(C2)[C@H]31 | 4.9 (≈ 15.8 µM)
C[C@H](O)[C@@H]1C[C@H]2C[C@H]3c4[nH]c5ccccc5c4CCN(C2)[C@@H]13 [HEYNEANINE] | 10.7 (≈ 36.1 µM)
CC[C@H]1C[C@@H]2CN3CCc4c([nH]c5ccc(OC)cc45)[C@](C(=O)OC)(C2)[C@H]13 [VOACANGINE] | 10.4 (≈ 28.2 µM)
CC[C@H]1C[C@H]2C[C@H]3c4[nH]c5cc(OC)ccc5c4CCN(C2O)[C@@H]13 (mixture of isomers) | 7.9
CC[C@H]1C[C@H]2C[C@H]3c4[nH]c5ccc(OC)cc5c4CCN(C2)[C@@H]13 [IBOGAINE] | 10.2 (≈ 32.9 µM)
CC[C@H]1C[C@H]2C[C@H]3c4[nH]c5ccccc5c4CCN(C2)[C@@H]13 [IBOGAMINE] | 3.5 (≈ 12.5 µM)
CC[C@H]1C[C@@H]2CN3CCc4c([nH]c5ccccc45)[C@](C(=O)OC)(C2)[C@H]13 [CORONARIDINE] | 9.9 (≈ 29.3 µM)
